Assay results published in ChEMBL document CHEMBL6109139, “Rational Design of the First Dual Agonist at Trace Amine-Associated Receptor 1 and 5-HT2C Receptors Based on Binding Pocket Similarity for the Treatment of Schizophrenia and Alzheimer's Disease-Related Psychosis” (J Med Chem, 2025).
The source made the active and inactive calls. The rule behind the calls is not given here.

Assays:
[1] = Toxicity in female Sprague-Dawley rat assessed as minimal corneal neovascularization at 2.5 to 7.5 mg/kg, po administered once daily for 4 weeks and measured after 4 weeks; format: organism-based; conditions: in vivo, 1344 h, dose 2.5-7.5 mg/kg, time 8 weeks
[2] = target: D(2) dopamine receptor (Homo sapiens, UniProt P14416); test: Antagonist activity at human D2L receptor expressed in Flp-In-CHO cells; format: cell-based
[3] = target: 5-hydroxytryptamine receptor 2B (Homo sapiens) (UniProt P41595); test: Binding affinity to 5-HT2B (unknown origin) at 10 uM by radioligand binding assay relative to control
[4] = Toxicity in male Sprague-Dawley rat assessed as slow respiration at 7.5 mg/kg, po administered once daily for 4 weeks; format: organism-based; conditions: in vivo, 672 h
[5] = Toxicity in male Beagle dog assessed as change in hematology at 0.75 to 2.5 mg/kg, IG administered once daily for 4 weeks and measured after 4 weeks; format: organism-based, Canis lupus familiaris; conditions: in vivo, po, 1344 h, dose 0.75-2.5 mg/kg, time 8 weeks
[6] = target: Trace amine-associated receptor 1 (Mus musculus) (UniProt Q923Y8); test: Agonist activity at mouse TAAR1 by measuring maximum efficacy relative to control; format: functional; conditions: filed as agonist
[7] = Toxicity in male Beagle dog assessed as change in body temperature at 0.75 to 2.5 mg/kg, IG administered once daily for 4 weeks and measured after 4 weeks; format: organism-based, Canis lupus familiaris; conditions: in vivo, po, 1344 h, dose 0.75-2.5 mg/kg, time 8 weeks
[8] = Toxicity in male Beagle dog assessed as change in organ weight at 0.75 to 2.5 mg/kg, IG administered once daily for 4 weeks and measured after 4 weeks; format: organism-based, Canis lupus familiaris; conditions: in vivo, po, 1344 h, dose 0.75-2.5 mg/kg, time 8 weeks
[9] = Drug concentration in male Sprague-Dawley rat brain at 5 mg/kg, IG measured after 6 hrs by LC-MS/MS analysis; format: ADME, organism-based; conditions: in vivo, po
[10] = Toxicity in Sprague-Dawley rat assessed as good general health at 2.5 to 7.5 mg/kg, po administered once daily for 4 weeks and measured after 4 weeks; format: organism-based; conditions: in vivo, 1344 h, dose 2.5-7.5 mg/kg, time 8 weeks
[11] = Toxicity in female Beagle dog assessed as change in hematology at 0.75 to 2.5 mg/kg, IG administered once daily for 4 weeks and measured after 4 weeks; format: organism-based, Canis lupus familiaris; conditions: in vivo, po, 1344 h, dose 0.75-2.5 mg/kg, time 8 weeks
[12] = Toxicity in Sprague-Dawley rat assessed as normal spontaneous movement at 2.5 to 7.5 mg/kg, po administered once daily for 4 weeks; format: organism-based; conditions: in vivo, 672 h, dose 2.5-7.5 mg/kg
[13] = test system: Mus musculus; test: Antipsychotic activity against MK-801 induced hypermobilization in male C57BL/6J mouse model assessed as reduction in hypermobilization state at 10 mg/kg, IG pretreated with compound followed by MK-801 addition and measured after 30 mins by open field test; format: functional, organism-based
[14] = Plasma protein binding in rat assessed as unbound fraction by LC-MS/MS analysis; format: ADME, cell-free
[15] = target: D(1A) dopamine receptor (Homo sapiens) (UniProt P21728); test: Binding affinity to D1 receptor (unknown origin) at 10 uM by radioligand binding assay relative to control
[16] = Toxicity in female Beagle dog assessed as change in organ weight at 0.75 to 2.5 mg/kg, IG administered once daily for 4 weeks and measured after 4 weeks; format: organism-based, Canis lupus familiaris; conditions: in vivo, po, 1344 h, dose 0.75-2.5 mg/kg, time 8 weeks
[17] = Toxicity in male Sprague-Dawley rat assessed as suppression of food consumption at 7.5 mg/kg, po administered once daily for 4 weeks and measured after 4 weeks; format: organism-based; conditions: in vivo, 1344 h, time 8 weeks
[18] = Toxicity in female Sprague-Dawley rat assessed as irritability at 7.5 mg/kg, po administered once daily for 4 weeks; format: organism-based; conditions: in vivo, 672 h
[19] = Toxicity in male Sprague-Dawley rat assessed as suppression of body weight gain at 7.5 mg/kg, po administered once daily for 4 weeks and measured weekly twice; format: organism-based; conditions: in vivo, 672 h
[20] = target: Cytochrome P450 1A2 (Homo sapiens, UniProt P05177); test: Inhibition of CYP1A2 in human liver microsomes in presence of NADPH by LC-MS/MS analysis; format: ADME, Microsome
[21] = test system: Mus musculus; test: Antidepressant activity in chronic social defeat stress induced depressive C57BL/6J mouse model assessed as increase in time of interaction zone administered intragastrically measured after 15 mins by open field test; format: functional, organism-based; conditions: dose 0.5-2 mg/kg
[22] = Toxicity in female Sprague-Dawley rat assessed as change in blood glucose level at 2.5 to 7.5 mg/kg, po administered once daily for 4 weeks and measured after 4 weeks; format: organism-based; conditions: in vivo, 1344 h, dose 2.5-7.5 mg/kg, time 8 weeks
[23] = test system: Mus musculus; test: Antipsychotic activity against MK-801 induced hypermobilization in male C57BL/6J mouse model assessed as reduction in hypermobilization state at 3 mg/kg, IG pretreated with compound followed by MK-801 addition and measured after 30 mins by open field test; format: functional, organism-based
[24] = AUClast in male mouse at 10 mg/kg, IG measured after 24 hrs; format: ADME, organism-based; conditions: in vivo, po
[25] = target: Muscarinic acetylcholine receptor M1 (Homo sapiens) (UniProt P11229); test: Binding affinity to M1 receptor (unknown origin) at 10 uM by radioligand binding assay relative to control
[26] = Metabolic stability in mouse liver microsomes assessed as intrinsic clearance at 1 uM incubated for 60 mins by LC-MS/MS analysis; format: ADME, Microsome; conditions: read-out: CLH
[27] = Mutagenicity in Salmonella typhimurium TA98 by Ames test; format: toxicity; conditions: salmonella enterica subsp. enterica serovar typhimurium
[28] = target: Tyrosine-protein kinase Lck (Homo sapiens) (UniProt P06239); test: Binding affinity to LCK receptor (unknown origin) at 10 uM by radioligand binding assay relative to control
[29] = target: Prostaglandin G/H synthase 1 (Homo sapiens) (UniProt P23219); test: Binding affinity to COX1 (unknown origin) at 10 uM by radioligand binding assay relative to control
[30] = target: Cytochrome P450 2C19 (Homo sapiens, UniProt P33261); test: Inhibition of CYP2C19 in human liver microsomes in presence of NADPH by LC-MS/MS analysis; format: ADME, Microsome
[31] = target: Voltage-gated inwardly rectifying potassium channel KCNH2 (Homo sapiens, UniProt Q12809); test: Inhibition of human ERG expressed in CHO cells by whole cell patch clamp technique; format: toxicity, cell-based
[32] = Toxicity in male Beagle dog assessed as somnolence at 2.5 mg/kg, IG administered once daily for 4 weeks; format: organism-based, Canis lupus familiaris; conditions: in vivo, po, 672 h
[33] = Toxicity in male Sprague-Dawley rat assessed as change in blood glucose level at 2.5 to 7.5 mg/kg, po administered once daily for 4 weeks and measured after 4 weeks; format: organism-based; conditions: in vivo, 1344 h, dose 2.5-7.5 mg/kg, time 8 weeks
[34] = species on record: Homo sapiens; test: Binding affinity to CCKa (unknown origin) at 10 uM by radioligand binding assay relative to control
[35] = target: Trace amine-associated receptor 1 (Mus musculus, UniProt Q923Y8); test: Agonist activity at mouse TAAR1; format: functional
[36] = test system: Mus musculus; test: Antipsychotic activity against methamphetamine-induced hyperlocomotion in male C57BL/6J mouse model assessed as reduction in hyperlocomotive state at 10 mg/kg, IG pretreated with compound followed by methamphetamine addition and measured after 30 mins by open field test; format: functional, organism-based
[37] = target: Histamine H2 receptor (Homo sapiens) (UniProt P25021); test: Binding affinity to H2 receptor (unknown origin) at 10 uM by radioligand binding assay relative to control
[38] = Toxicity in male Sprague-Dawley rat assessed as suppression of food consumption at 7.5 mg/kg, po administered once daily for 4 weeks and measured weekly twice; format: organism-based; conditions: in vivo, 672 h

Chain of Tyrosine-protein kinase Lck (Homo sapiens) (P06239 2-509 limits assumed): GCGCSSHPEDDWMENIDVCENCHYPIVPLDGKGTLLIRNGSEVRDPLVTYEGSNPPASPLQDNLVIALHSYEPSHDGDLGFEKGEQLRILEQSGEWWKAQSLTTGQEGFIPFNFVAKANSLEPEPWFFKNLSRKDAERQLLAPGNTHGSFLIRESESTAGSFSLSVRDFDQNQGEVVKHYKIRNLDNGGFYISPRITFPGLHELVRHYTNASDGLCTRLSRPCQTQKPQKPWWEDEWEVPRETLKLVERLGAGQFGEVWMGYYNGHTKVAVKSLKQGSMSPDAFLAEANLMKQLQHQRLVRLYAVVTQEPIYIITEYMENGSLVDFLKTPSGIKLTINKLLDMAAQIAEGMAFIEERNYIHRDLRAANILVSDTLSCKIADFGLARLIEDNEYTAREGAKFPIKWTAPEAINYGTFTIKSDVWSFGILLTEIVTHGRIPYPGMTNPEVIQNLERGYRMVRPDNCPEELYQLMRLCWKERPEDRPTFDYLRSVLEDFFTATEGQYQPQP
Chain of D(2) dopamine receptor (P14416 whole entry): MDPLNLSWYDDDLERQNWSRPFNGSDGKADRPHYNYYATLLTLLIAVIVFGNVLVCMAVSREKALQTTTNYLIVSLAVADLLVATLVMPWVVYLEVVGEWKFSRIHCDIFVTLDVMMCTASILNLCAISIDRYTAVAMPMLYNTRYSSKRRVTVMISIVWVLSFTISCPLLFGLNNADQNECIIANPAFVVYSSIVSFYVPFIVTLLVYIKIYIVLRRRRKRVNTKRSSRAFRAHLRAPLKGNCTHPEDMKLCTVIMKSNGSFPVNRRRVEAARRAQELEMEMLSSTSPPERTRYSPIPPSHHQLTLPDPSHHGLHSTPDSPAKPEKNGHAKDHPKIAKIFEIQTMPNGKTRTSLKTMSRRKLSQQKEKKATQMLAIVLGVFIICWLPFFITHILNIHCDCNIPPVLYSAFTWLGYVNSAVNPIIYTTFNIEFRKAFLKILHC
Chain of Cytochrome P450 1A2 (P05177 whole entry): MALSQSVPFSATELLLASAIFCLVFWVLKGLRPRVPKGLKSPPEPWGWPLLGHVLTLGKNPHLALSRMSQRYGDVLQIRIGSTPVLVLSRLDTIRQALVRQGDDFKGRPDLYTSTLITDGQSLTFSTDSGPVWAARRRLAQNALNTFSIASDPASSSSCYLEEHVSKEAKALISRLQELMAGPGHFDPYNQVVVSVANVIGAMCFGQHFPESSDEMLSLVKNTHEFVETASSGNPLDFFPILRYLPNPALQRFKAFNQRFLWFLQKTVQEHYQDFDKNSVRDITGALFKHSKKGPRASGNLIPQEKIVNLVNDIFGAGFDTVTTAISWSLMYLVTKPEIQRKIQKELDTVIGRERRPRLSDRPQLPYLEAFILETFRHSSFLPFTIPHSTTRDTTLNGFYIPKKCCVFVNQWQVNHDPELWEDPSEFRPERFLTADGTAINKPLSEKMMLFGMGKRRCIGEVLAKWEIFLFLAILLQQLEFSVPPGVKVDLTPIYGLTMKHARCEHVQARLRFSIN
Chain of Voltage-gated inwardly rectifying potassium channel KCNH2 (Q12809 whole entry): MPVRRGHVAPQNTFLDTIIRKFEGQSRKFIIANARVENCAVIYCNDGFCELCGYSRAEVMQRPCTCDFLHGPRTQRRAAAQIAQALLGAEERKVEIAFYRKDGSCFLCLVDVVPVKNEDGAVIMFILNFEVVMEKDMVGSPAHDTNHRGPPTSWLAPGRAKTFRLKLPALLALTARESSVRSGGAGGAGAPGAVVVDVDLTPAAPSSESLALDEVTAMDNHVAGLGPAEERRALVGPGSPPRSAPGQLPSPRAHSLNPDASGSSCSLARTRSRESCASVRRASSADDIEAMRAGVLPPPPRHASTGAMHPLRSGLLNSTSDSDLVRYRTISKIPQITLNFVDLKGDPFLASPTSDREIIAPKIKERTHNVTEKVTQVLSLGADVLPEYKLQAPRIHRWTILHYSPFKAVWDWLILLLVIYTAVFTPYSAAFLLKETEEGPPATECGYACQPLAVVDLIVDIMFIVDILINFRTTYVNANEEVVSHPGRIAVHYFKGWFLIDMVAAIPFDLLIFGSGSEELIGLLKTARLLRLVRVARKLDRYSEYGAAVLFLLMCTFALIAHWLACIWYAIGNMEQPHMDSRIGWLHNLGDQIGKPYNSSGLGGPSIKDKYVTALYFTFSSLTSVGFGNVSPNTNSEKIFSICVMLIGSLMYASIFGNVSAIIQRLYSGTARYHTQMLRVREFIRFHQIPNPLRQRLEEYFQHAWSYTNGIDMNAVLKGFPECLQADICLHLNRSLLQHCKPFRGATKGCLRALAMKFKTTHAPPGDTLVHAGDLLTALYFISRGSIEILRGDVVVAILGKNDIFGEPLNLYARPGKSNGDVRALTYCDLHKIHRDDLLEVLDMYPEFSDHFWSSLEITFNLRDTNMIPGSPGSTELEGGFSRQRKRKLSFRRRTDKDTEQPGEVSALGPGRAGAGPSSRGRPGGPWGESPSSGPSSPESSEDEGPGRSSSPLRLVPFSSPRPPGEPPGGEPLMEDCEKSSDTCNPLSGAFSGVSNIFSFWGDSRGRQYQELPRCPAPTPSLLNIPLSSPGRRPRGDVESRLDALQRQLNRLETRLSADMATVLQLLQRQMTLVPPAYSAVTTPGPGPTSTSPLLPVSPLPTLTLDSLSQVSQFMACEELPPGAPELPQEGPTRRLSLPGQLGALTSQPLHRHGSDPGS
Chain of Prostaglandin G/H synthase 1 (Homo sapiens) (P23219 whole entry): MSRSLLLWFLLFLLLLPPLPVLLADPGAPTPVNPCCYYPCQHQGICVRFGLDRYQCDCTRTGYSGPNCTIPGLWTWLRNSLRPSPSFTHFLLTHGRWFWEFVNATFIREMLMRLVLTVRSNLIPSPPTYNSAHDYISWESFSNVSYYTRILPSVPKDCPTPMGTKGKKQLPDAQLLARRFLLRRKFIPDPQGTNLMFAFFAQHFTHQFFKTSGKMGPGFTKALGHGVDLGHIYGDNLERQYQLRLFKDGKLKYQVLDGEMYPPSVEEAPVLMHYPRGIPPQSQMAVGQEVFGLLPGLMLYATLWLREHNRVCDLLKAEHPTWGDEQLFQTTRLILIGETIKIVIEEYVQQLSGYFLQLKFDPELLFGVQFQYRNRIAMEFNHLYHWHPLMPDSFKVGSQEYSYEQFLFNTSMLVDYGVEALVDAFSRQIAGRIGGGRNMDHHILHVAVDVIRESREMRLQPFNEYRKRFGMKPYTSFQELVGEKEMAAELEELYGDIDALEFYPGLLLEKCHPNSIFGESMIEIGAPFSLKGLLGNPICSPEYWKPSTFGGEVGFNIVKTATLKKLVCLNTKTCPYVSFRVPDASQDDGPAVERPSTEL
Chain of Histamine H2 receptor (Homo sapiens) (P25021 whole entry): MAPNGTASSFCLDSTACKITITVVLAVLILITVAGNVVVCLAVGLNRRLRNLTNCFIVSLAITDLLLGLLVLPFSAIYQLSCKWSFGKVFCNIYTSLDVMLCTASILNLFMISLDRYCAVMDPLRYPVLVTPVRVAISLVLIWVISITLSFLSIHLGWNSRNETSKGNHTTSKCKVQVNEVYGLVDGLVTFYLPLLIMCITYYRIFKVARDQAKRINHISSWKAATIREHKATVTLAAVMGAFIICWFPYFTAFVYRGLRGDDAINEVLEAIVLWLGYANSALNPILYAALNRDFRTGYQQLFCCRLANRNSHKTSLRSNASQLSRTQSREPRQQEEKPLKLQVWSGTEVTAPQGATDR
Chain of Cytochrome P450 2C19 (P33261 whole entry): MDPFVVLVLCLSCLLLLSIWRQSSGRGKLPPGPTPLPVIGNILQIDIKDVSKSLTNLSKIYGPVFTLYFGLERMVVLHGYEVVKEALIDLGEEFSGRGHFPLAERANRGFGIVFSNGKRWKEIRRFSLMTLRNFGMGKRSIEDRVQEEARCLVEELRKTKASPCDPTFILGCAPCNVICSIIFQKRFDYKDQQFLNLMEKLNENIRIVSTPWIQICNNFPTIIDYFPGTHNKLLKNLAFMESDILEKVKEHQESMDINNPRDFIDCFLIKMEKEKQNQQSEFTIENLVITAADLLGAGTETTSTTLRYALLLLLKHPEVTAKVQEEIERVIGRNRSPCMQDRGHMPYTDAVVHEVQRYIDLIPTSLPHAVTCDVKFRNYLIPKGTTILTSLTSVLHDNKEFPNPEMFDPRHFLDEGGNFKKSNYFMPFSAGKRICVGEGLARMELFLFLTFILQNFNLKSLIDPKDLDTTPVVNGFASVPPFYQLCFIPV
Chain of D(1A) dopamine receptor (Homo sapiens) (P21728 whole entry): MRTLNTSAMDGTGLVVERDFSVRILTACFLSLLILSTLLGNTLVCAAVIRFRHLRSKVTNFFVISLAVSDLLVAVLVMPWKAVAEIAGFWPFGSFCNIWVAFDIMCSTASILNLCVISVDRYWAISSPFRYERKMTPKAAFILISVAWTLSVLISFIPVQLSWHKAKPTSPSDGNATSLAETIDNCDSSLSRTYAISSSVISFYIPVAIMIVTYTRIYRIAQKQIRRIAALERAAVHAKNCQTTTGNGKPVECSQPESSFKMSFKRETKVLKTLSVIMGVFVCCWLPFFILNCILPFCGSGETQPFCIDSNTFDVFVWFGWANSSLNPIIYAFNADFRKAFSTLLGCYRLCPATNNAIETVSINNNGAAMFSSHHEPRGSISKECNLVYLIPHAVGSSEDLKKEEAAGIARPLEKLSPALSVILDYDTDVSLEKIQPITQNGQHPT
Chain of Muscarinic acetylcholine receptor M1 (Homo sapiens) (P11229 whole entry): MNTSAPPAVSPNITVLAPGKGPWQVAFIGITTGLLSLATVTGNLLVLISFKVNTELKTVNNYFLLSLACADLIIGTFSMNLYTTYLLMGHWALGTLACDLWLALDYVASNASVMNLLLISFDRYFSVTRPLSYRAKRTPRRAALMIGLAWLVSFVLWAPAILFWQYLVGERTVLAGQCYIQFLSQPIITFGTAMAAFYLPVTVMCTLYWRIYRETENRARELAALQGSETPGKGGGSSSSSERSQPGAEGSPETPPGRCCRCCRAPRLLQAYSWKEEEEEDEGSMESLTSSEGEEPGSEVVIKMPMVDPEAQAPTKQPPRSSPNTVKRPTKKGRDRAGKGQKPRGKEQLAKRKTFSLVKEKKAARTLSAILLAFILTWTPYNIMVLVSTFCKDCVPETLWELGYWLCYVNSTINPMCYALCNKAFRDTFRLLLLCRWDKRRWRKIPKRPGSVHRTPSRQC

c1cc2c(s1)[C@@H]1CNCCN1CC2
Activity [1]: Non-toxic
IC50 [2]: > 100 µM
Activity [3]: 45.3%
Activity [4]: Toxic
Activity [5]: Non-toxic
Emax [6]: 100%
Activity [7]: Non-toxic
Activity [8]: Non-toxic
Ct [9]: 3832 nmol/kg
Activity [10]: Non-toxic
Activity [11]: Non-toxic
Activity [12]: Non-toxic
Activity [13]: Active; Similar Effect Observed Compared To Brexpiprazole
fraction unbound [14]: 0.759
Activity [15]: 45.9%
Activity [16]: Non-toxic
Activity [17]: Non-toxic
Activity [18]: Toxic
Activity [19]: Toxic
IC50 [20]: > 50 µM
Activity [21]: Dose-dependent-effect
Activity [22]: Non-toxic
Activity [23]: Active; More Effective Than Ulotaront
AUC(0-t) at 24 h [24]: 21.6 µM·h
Activity [25]: 26.5%
CLint scaled at 1 µM [26]: < 1.78 L/h/kg
Activity [27]: Non-toxic
Activity [28]: 3.4%
Activity [29]: 33.3%
IC50 [30]: > 50 µM
IC50 [31]: > 30 µM
Activity [32]: Toxic
Activity [33]: Non-toxic
Activity [34]: 1.26%
EC50 [35]: 0.0723 µM
Activity [36]: Active
Activity [37]: 1.39%
Activity [38]: Toxic
